# Test results reported in patent publication US20110269763A1, “CRTH2 receptor ligands for medicinal uses” (7TM Pharma A/S, priority 2004, published 2011).
# Key:
# human CRTH2 [1] = molecular target: T1, human CRTH2 (Homo sapiens, UniProt Q9Y5Y4, V204A); experiment: Functional antagonist BRET assay on HEK293 cells stably expressing human CRTH2-Rluc and GFP2-β-arr2; type: cell-based; parameters: expressed in transfected cells; details: read-out: Antag. IC50
# T1 sequence (Q9Y5Y4 1-395 V204A): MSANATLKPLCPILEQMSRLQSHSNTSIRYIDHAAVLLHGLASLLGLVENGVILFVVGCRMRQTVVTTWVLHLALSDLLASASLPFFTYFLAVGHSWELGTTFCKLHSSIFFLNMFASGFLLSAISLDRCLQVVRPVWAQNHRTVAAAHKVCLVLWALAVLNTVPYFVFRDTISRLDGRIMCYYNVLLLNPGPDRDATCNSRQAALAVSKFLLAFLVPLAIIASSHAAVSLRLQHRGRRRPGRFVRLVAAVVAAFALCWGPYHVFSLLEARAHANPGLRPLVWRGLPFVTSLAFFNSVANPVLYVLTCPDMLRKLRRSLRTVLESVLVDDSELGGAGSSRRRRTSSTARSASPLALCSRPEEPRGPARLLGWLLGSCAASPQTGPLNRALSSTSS
# Method in brief: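 Cells (2×10^6/mL in D-PBS with glucose) were preincubated 15 min with antagonist at 1% DMSO, then agonist and DeepBlueC were co-injected. Emission at 400 and 515 nm was read 5 s later, and the mBRET ratio (515/400 nm) was used to derive IC50 from concentration–response curves.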
# human CRTH2 [2] = molecular target: T1, human CRTH2; experiment: Receptor binding assay: [3H]PGD2 competition binding on whole COS-7 cells transiently transfected with CRTH2 (also stable HEK293 cells); parameters: expressed in transfected cells; host or cells: COS-7 (transient, calcium phosphate)
# Method in brief: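 Whole COS-7 cells transiently transfected with human CRTH2 (calcium phosphate), or stable HEK293 cells, competed against 0.1 nM [3H]PGD2 in HBSS/10 mM HEPES with 1% DMSO, 3 h at 4 °C. Nonspecific binding with 10 μM PGD2; scintillation counting, duplicates. IC50 from curve fitting.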
# [3] = functional antagonist assay, Table 3
# [4] = receptor binding assay, Table 3
# [5] = BRET, antagonist incubated 15 minutes prior to agonist
# [6] = competition with 0.1 nM [3H]PGD2, whole cells, 3 h at 4° C.
Structure (SMILES),IC50 (human CRTH2 [1]; [3]),IC50 (human CRTH2 [2]; [4]),IC50 (human CRTH2 [1]; [5]),IC50 (human CRTH2 [2]; [6])
"O=C(O)COc1ccc(Br)cc1C(=O)c1cnn(-c2ccccc2C(F)(F)F)c1 [D23, 4-Bromo-2-[1-(2-trifluoromethylphenyl)-1H-pyrazole-4-carbonyl]phenoxyacetic acid]",–,–,< 500 nM,< 500 nM
"CC(Oc1ccc(Br)cc1C(=O)c1cnn(-c2ccc(Cl)cc2Cl)c1)C(=O)O (centres unmarked) [D51, 2-{4-Bromo-2-[1-(2,4-dichlorophenyl)-1H-pyrazole-4-carbonyl]phenoxy}propionic acid]",–,–,< 500 nM,< 500 nM
"O=C(O)COc1ccc([N+](=O)[O-])cc1C(=O)c1cnn(-c2ccccc2Cl)c1 [D27, 4-Nitro-2-[1-(2-chlorophenyl)-1H-pyrazole-4-carbonyl]phenoxyacetic acid]",–,–,< 500 nM,< 500 nM
O=C(O)COc1ccccc1C=NNC(=O)c1ccc2ccccc2c1O [D154],–,–,< 500 nM,< 500 nM
"CCc1ccc(OCC(=O)O)c(C(=O)c2cnn(-c3c(Cl)cccc3Cl)c2)c1 [D53, {2-[1-(2,6-Dichlorophenyl)-1H-pyrazole-4-carbonyl]-4-ethylphenoxy}acetic acid]",–,–,< 500 nM,< 500 nM
"O=C(O)COc1ccc(Br)cc1CN1CC(=O)N(CCc2ccccc2)C1=O [D140, 4-Bromo-2-(2,4-dioxo-3-phenethylimidazolidin-1-ylmethyl)phenoxyacetic acid]",–,–,500 to 5000 nM,< 500 nM
"O=C(O)COc1ccc(Br)cc1C(=O)c1cnn(-c2c(Cl)cc(Cl)cc2Cl)c1 [D35, 4-Bromo-2-[1-(2,4,6-trichlorophenyl)-1H-pyrazole-4-carbonyl]phenoxyacetic acid]",–,–,< 500 nM,< 500 nM
"CSc1ccccc1-n1cc(C(=O)c2cc(Br)ccc2OC(C)C(=O)O)cn1 (centres unmarked) [D49, 2-{4-Bromo-2-[1-(2-methylthio)-1H-pyrazole-4-carbonyl]phenoxy}propionic acid]",–,–,< 500 nM,< 500 nM
"O=C(O)COc1ccc(Br)cc1C(=O)c1cnn(-c2ccc(Cl)c(Cl)c2)c1 [D61, {4-Bromo-2-[1-(3,4-dichlorophenyl)-1H-pyrazole-4-carbonyl]phenoxy}acetic acid]",–,–,< 500 nM,< 500 nM
"CC1(Cc2cc(Br)ccc2OCC(=O)O)SC(=O)N(Cc2ccc(Cl)cc2)C1=O (centres unmarked) [D146, 4-Bromo-2-[3-(4-chlorobenzyl)-5-methyl-2,4-dioxothiazolidin-5-ylmethyl]phenoxyacetic acid]",–,–,< 500 nM,< 500 nM
"CC(Oc1ccc(Br)cc1C(=O)c1cnn(-c2ccccc2Cl)c1)C(=O)O (centres unmarked) [D38, 2-{4-Bromo-2-[1-(2-chlorophenyl)-1-H-pyrazole-4-carbonyl]phenoxy}propionic acid]",–,–,< 500 nM,< 500 nM
"O=C(O)COc1ccc(-c2ccc(Cl)cc2)cc1C(=O)c1cnn(-c2ccccc2)c1 [D9, [4′-Chloro-3-(1-phenyl-1H-pyrazole-4-carbonyl)biphenyl-4-yloxy]acetic acid]",–,–,< 500 nM,< 500 nM
O=C(O)COc1ccccc1C=NNC(=O)c1ccnc(-c2ccccc2)c1 [D155],–,–,500 to 5000 nM,< 500 nM
"O=C(O)COc1ccc([N+](=O)[O-])cc1C(=O)c1cnn(-c2ccccc2)c1 [D20, 4-Nitro-2-(1-phenyl-1H-pyrazole-4-carbonyl)phenoxyacetic acid]",–,–,< 500 nM,< 500 nM
"Cc1ccc(-n2cc(C(=O)c3cc(Br)ccc3OC(C)C(=O)O)cn2)c(C)c1 (centres unmarked) [D55, 2-{4-Bromo-2-[1-(2,4-dimethylphenyl)-1H-pyrazole-4-carbonyl]phenoxy}propionic acid]",–,–,< 500 nM,< 500 nM
"Cc1ccc(-n2cc(C(=O)c3cc(Br)ccc3OCC(=O)O)cn2)c(Br)c1 [D45, {4-Bromo-2-[1-(2-bromo-4-methylphenyl)-1H-pyrazole-4-carbonyl]phenoxy}acetic acid]",–,–,< 500 nM,< 500 nM

# Other lines, results leading:
IC50 (human CRTH2 [1]; [3]),IC50 (human CRTH2 [2]; [4]),IC50 (human CRTH2 [1]; [5]),IC50 (human CRTH2 [2]; [6]),Structure (SMILES)
< 500 nM,< 500 nM,–,–,"O=C(O)COc1ccc(Br)cc1-c1nc(-c2c(Cl)cccc2Cl)no1 [D110, {4-Bromo-2-[3-(2,6-dichlorophenyl)-[1,2,4]oxadiazol-5-yl]phenoxy}acetic acid]"
< 500 nM,< 500 nM,–,–,"O=C(O)COc1ccc(Br)cc1-c1nc(-c2ccccc2)no1 [D99, [4-Bromo-2-(3-phenyl-[1,2,4]oxadiazol-5-yl)phenoxy]acetic acid]"
< 500 nM,< 500 nM,–,–,"O=C(O)COc1ccc(Br)cc1-c1nc(-c2ccccc2Cl)no1 [D108, {4-Bromo-2-[3-(2-chlorophenyl)-[1,2,4]oxadiazol-5-yl]phenoxy}acetic acid]"
–,–,< 500 nM,< 500 nM,"O=C(O)COc1ccc(Br)cc1C(=O)c1cnc(-c2ccccc2)s1 [D95, [4-Bromo-2-(2-phenylthiazole-5-carbonyl)phenoxy]acetic acid]"
< 500 nM,< 500 nM,–,–,"COc1ccccc1Cc1noc(-c2cc(Br)ccc2OCC(=O)O)n1 [D119, {4-Bromo-2-[3-(2-methoxy-benzyl)-[1,2,4]oxadiazol-5-yl]-phenoxy}-acetic acid]"
< 500 nM,< 500 nM,–,–,"COc1ccc(Cc2noc(-c3cc(Br)ccc3OCC(=O)O)n2)cc1OC [D124, {4-Bromo-2-[3-(3,4-dimethoxybenzyl)-[1,2,4]oxadiazol-5-yl]phenoxy}-acetic acid]"
500 to 5000 nM,< 500 nM,–,–,"COc1cc(Cc2noc(-c3cc(Br)ccc3OCC(=O)O)n2)cc(OC)c1 [D128, {4-Bromo-2-[3-(3,5-dimethoxybenzyl)-[1,2,4]oxadiazol-5-yl]phenoxy}acetic acid]"
< 500 nM,< 500 nM,–,–,"O=C(O)COc1ccc(Br)cc1-c1nc(Cc2ccc(Cl)cc2)no1 [D114, {4-Bromo-2-[3-(4-chloro-benzyl)-[1,2,4]oxadiazol-5-yl]-phenoxy}-acetic acid]"
< 500 nM,< 500 nM,–,–,"O=C(O)COc1ccc(Br)cc1-c1nc(Cc2c(Cl)cccc2Cl)no1 [D121, {4-Bromo-2-[3-(2,6-dichloro-benzyl)-[1,2,4]oxadiazol-5-yl]-phenoxy}-acetic acid]"
< 500 nM,< 500 nM,–,–,"O=C(O)COc1ccc(Br)cc1-c1nc(Cc2cccc(Cl)c2)no1 [D130, {4-Bromo-2-[3-(3-chlorobenzyl)-[1,2,4]oxadiazol-5-yl]phenoxy}acetic acid]"
–,–,< 500 nM,< 500 nM,"O=C(O)COc1ccc(Br)cc1C(=O)c1cnn(Cc2ccccc2)c1 [D56, [2-(1-Benzyl-1H-pyrazole-4-carbonyl)-4-bromophenoxy]acetic acid]"
< 500 nM,< 500 nM,–,–,"O=C(O)COc1ccc(Br)cc1-c1nc(-c2ccc(Oc3ccccc3)cc2)no1 [D111, {4-Bromo-2-[3-(4-phenoxy-phenyl)-[1,2,4]oxadiazol-5-yl]-phenoxy}-acetic acid]"
–,–,< 500 nM,< 500 nM,"COc1cccc(-c2nc(-c3cc(Br)ccc3OCC(=O)O)co2)c1 [D86, {4-Bromo-2-[2-(3-methoxyphenyl)oxazol-4-yl]phenoxy}acetic acid]"
–,–,< 500 nM,< 500 nM,"O=C(O)COc1ccc(Br)cc1-c1coc(Cc2ccccc2)n1 [D88, [2-(2-Benzyloxazol-4-yl)-4-bromophenoxy]acetic acid]"
–,–,< 500 nM,< 500 nM,"O=C(O)COc1ccc(Br)cc1-c1noc(-c2ccc(Cl)cc2)n1 [D135, {4-Bromo-2-[5-(4-chlorophenyl)-[1,2,4]oxadiazol-3-yl]phenoxy}acetic acid]"
